Reference: US20260216348A1, “IRAK DEGRADATION AGENT AND USE THEREOF” (Increland, priority 2023, published 2026)

Tests used:
[1] = system: CIA-induced rheumatoid arthritis model; assay: CIA-induced rheumatoid arthritis model; format: in vivo, DBA/1J mice; conditions: BID, Model 12.31 ± 2.97, Mean ± SD, n = 7
Description: 1. DBA/1J mice, male, SPF grade, were pre-acclimatized in the animal facility for one week. 2. On day 1, for the primary immunization, 2 mg/mL bovine type II collagen was mixed thoroughly with an equal volume of complete Freund's adjuvant on ice using a homogenizer until fully emulsified. 100 μL of the collagen emulsion (final concentration 1 mg/mL) was intradermally injected at 2 cm from the base of the mouse tail. Medical iodophor was used to disinfect the tail after injection to prevent tail necrosis, which was conducted for 3 consecutive days. 3. On day 21, bovine type II collagen solution was thoroughly mixed and emulsified with an equal volume of Freund's incomplete adjuvant, using the same method as the primary immunization. 4. On day 26, LPS was administered intraperitoneally at a dose of 50 μg/animal to induce disease. 5. On day 28, the affected mice were scored according to Table 33 and the diameter of their ankle joints was measured. Mice were randomly grouped and treated with medication based on their scores and ankle diameter.

[2] = Metabolic stability in human liver microsome; format: in vitro ADME; conditions: NADPH, 60 min; for half-life at 1 µM: liver microsomes, read-out: Human liver microsome (t1/2, min)
Description: Clean incubation plates T60 and NCF60 were preheated at 37° C. for 10 min. Liver microsomes were diluted to a concentration of 0.56 mg/mL with 100 mM phosphate buffer, and 445 μL of the microsome working solution (0.56 mg/mL) was transferred to the preheated incubation plates T60 and NCF60, followed by incubation of the plates T60 and NCF60 with continuous shaking at 37° C. for 10 min. After incubation, 54 μL of liver microsomes were transferred to a blank plate, 6 μL of NAPDH cofactor was added to the blank plate, and then 180 μL of quenching solution was added to the blank plate. 5 μL of the compound working solution (100 μM) was added to the microsome-containing incubation plates T60 and NCF60, and mixed thoroughly 3 times. For plate NCF60, 50 μL of buffer was added and the system was mixed thoroughly 3 times before timing was started, and the plate was incubated with shaking at 37° C. for 60 min. For the quenching plate, 180 μL of quenching solution and 6 μL of NADPH cofactor were added, and the plate was ensured to be cooled to prevent evaporation. For the T60 plate, the mixture was thoroughly mixed 3 times, and 54 μL of the mixture was immediately transferred to the quenching plate at the time point of 0 min. Then 44 μL of the NAPDH cofactor was added to the incubation plate (T60). Timing was started, and the plate was incubated with shaking at 37° C. for 60 min. At the time points of 5, 15, 30, 45, and 60 min, 180 μL of the quenching solution was added to the quenching plate respectively, mixed once, and 60 μL of sample was continuously transferred from the plate T60 to the quenching plate at each time point. For plate NCF60, after mixing once, 60 μL of the sample was transferred from incubation plate NCF60 to the quenching plate containing quenching solution at the 60-min time point. All sampling plates were shaken for 10 min, then centrifuged at 4000 rpm at 4° C. for 20 min. 80 μL of the supernatant was transferred to 240 μL of HPLC water, and mixed using a plate shaker for 10 min. Each bioanalytical plate was sealed and shaken for 10 min before LC-MS/MS analysis.

[3] = system: R848-induced IL-6 secretion in human peripheral blood mononuclear cells (PBMCs); assay: Inhibition of R848-induced IL-6 secretion in human PBMCs (IL-6 ELISA); format: cell-based; conditions: PBMC, R848 2.5 μg/mL, 20 h pre-incubation, 24 h stimulation
Description: This experiment was carried out in RPMI 1640 medium containing 10% FBS and 1% penicillin/streptomycin, with each of the compounds at an initial test concentration of 1 μM. The compound was dissolved in DMSO to prepare a stock solution, which was serially diluted into a series of working solutions with a 4-fold concentration gradient using the culture medium and then added to a 96-well plate at 10 μL per well. PBMCs (Batch No.: P122101102C; Milecell Biotechnology Inc.) were counted and diluted to a cell concentration of 1.25×10^6 cells/mL, and then added to the aforementioned compound-containing 96-well plate at 160 μL per well. The system was mixed well and incubated in a 5% CO2 incubator at 37° C. for 20 h. Then 10 μL of R848 (final concentration: 2.5 μg/mL) was added, and the culture was continued for 24 h in a 5% CO2 incubator at 37° C. After incubation, the 96-well plate was centrifuged at 2000 rpm for 4 min. The supernatant was collected and diluted 120-fold, then detected using an IL-6 ELISA kit. The OD450 values were read, and converted to IL-6 concentrations based on a standard curve.

[4] = system: LPS/IL-1β-induced IL-6 secretion in human peripheral blood mononuclear cells (PBMCs); assay: Inhibition of LPS/IL-1β-induced IL-6 secretion in human PBMCs (IL-6 ELISA); format: cell-based; conditions: PBMC, LPS 10 ng/mL + IL-1β 20 ng/mL, 24 h pre-incubation, 20 h stimulation
In short: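 IC50 values come from fitted curves of IL-6 levels, determined by ELISA (OD450, standard curve) in supernatants diluted 200-fold. Human PBMCs received 5-fold serial compound dilutions (top 1 μM) for 24 h before a 20 h challenge with final 10 ng/mL LPS and 20 ng/mL IL-1β, 37 °C, 5% CO2.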

[5] = target: T1, IRAK4 (Homo sapiens, UniProt Q9NWZ3); assay: IRAK4 protein degradation in THP1 cells (Western blot); format: cell-based; conditions: THP-1 cells, 24 h
T1 construct: Effect of the Compounds on IRAK4 Protein Degradation in THP1 Cells; endogenous in cells; host or cells: THP-1 cells
T1 sequence (Q9NWZ3 1-460): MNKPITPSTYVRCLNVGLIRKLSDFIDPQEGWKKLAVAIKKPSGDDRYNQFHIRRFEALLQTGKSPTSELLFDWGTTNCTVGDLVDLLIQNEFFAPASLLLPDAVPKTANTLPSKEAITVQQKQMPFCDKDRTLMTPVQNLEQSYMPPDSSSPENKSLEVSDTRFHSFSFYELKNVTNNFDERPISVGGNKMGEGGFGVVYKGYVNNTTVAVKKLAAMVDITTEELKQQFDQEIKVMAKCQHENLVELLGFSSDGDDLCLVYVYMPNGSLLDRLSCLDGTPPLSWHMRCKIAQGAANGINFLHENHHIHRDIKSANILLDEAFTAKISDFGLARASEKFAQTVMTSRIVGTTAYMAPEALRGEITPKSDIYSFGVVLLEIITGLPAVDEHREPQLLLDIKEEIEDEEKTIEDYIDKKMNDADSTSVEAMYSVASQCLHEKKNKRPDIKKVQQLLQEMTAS
In short: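 THP-1 cells (2×10^5/well) were treated with 5-fold serial compound dilutions for 24 h at 37 °C, then lysed with proteasome/phosphatase inhibitors. IRAK4 was detected by Western blot with chemiluminescence and semi-quantified by densitometry. DC50 came from the concentration–response.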

[6] = system: DSS-induced enteritis model; assay: DSS-induced enteritis (colitis) model; format: in vivo, mice; conditions: po, Model 10.33 ± 1.11, Mean ± SD, n = 7
Description: The experimental mice were pre-acclimatized in the animal facility for one week; at the beginning of the experiment, the mice were given medication intragastrically daily according to their body weight. After the completion of intragastric administration in each group, mice had direct access to water bottles for free drinking. The blank group received normal water, while the other groups received pre-prepared DSS water. Each afternoon, the mice's abdomens were massaged to stimulate defecation, and one fecal pellet was collected onto a white porcelain plate. Fecal consistency was judged and recorded according to Table 30. The fecal occult blood qualitative test kit (Yuanye Biotechnology, #R24187-300T) was used to test for occult blood in feces and the results were interpreted according to Table 31.

[7] = system: IMQ psoriasis model; assay: IMQ (imiquimod)-induced psoriasis model; format: in vivo, BALB/c mice; conditions: 100 mg/kg, BID, Mean ± SD, n = 7
Description: Male BALB/c mice, aged 6-8 weeks, were randomly divided into 9 groups after 1 week of acclimatization: blank control group, imiquimod model group (IMQ group, corresponding to the model groups in FIGS. 1 and 2), clobetasol propionate cream group (CLO group), TYKI (BMS-986165) group, IRAK4 protein degrader KT-474 (from patent WO2020113233) group (100 mg/kg), and the compound of the present disclosure (at an appropriate dose), with 6-7 mice in each group. One day before modeling, the hair on the backs of the mice was removed with depilatory cream, with a depilated area of 2×2 cm^2. On the day of modeling, IMQ cream was used for modeling, and the corresponding drugs were administered intragastrically for treatment. The compound of the present disclosure (at an appropriate dose) was administered intragastrically once daily, and IMQ cream was applied to the hairless area on the back and left ear of mice 2 h after the first administration. […] The blank group and the IMQ group were administered with vehicle intragastrically twice daily (in the morning and evening), with an 8-h interval between the two intragastric administrations. At 2 h after the first intragastric administration, vaseline and IMQ cream were applied topically to the depilated back and ears of the mice, respectively. The dosage of IMQ cream administered to the depilated area on the back and the left ear was 80 mg and 10 mg, respectively, and the mice in each group were administered the cream for 5 consecutive days.
Reference was made to the Psoriasis Area and Severity Index (PASI) scoring criteria. The psoriasis, erythema, and thickness of skin lesions on the back were scored from 0 to 4 every morning from day 1 of modeling, with the scoring criteria as shown in Table 28. The 3 were added up to obtain a total score, i.e., a total PASI score. The ear thickness of the left ear of the mouse was measured using a digital vernier caliper three times every morning from day 1 of modeling, to obtain a mean value.

| Compound | half-life at 1 µM [2] [min] | IC50 [3] [nM] | IC50 [4] [nM] | DC50 [5] [nM] | further results |
| --- | --- | --- | --- | --- | --- |
| C[C@@H]1CCN(C(=O)CC#N)C[C@@H]1N(C)c1ncnc2[nH]ccc12 [tofacitinib, Tofacitinib, reference compound] | – | – | – | – | DAI Score d 42 ([1]; 30 mg/kg): 10.67 ± 3.13 |
| CN(C)c1cc2nn([C@H]3CC[C@H](CN4CCC(n5cc6c(F)cc(C7CCC(=O)NC7=O)cc6n5)CC4)CC3)cc2cc1NC(=O)c1cnn2cccnc12 (stereo partly shown) [TM-233] | 138 | 3.34 | 0.83 | – | – |
| CN(C)c1cc2nn([C@H]3CC[C@H](CN4CC[C@H](n5cc6cc(C7CCC(=O)NC7=O)c(F)cc6n5)[C@H](F)C4)CC3)cc2cc1NC(=O)c1cnn2cccnc12 (stereo partly shown) [TM-132] | 93.1 | 7.83 | 3.52 | 0.31 | – |
| Cn1c(=O)n(C2CCC(=O)NC2=O)c2cccc(C#CCOC3CCN(C[C@H]4CC[C@H](n5cc(NC(=O)c6cnn7ccc(N8C[C@H]9C[C@@H]8CO9)nc67)c(C(F)F)n5)CC4)CC3)c21 (stereo partly shown) [KT474, reference compound] | – | – | – | – | DAI Score d 8 ([6]; 100 mpk, BID): 5.71 ± 1.28; DAI Score d 42 ([1]; 100 mg/kg): 11.63 ± 2.55; PASI Score d 6 ([7]; Model 8.85 ± 1.66): 6.93 ± 2.36; ΔSkin Thickness Change (μm) d 6 ([7]; Model 80.95 ± 6.16): 31.90 ± 9.90 μm |
| CN(C)c1cc2nn([C@H]3CC[C@H](CN4C[C@@H](F)[C@H](n5cc6c(F)cc(N7CCC(=O)NC7=O)cc6n5)C4)CC3)cc2cc1NC(=O)c1cnn2cccnc12 [TM-221] | – | 7.1 | 1.88 | 8.45 | DAI Score d 8 ([6]; 3 mpk, QD): 4.43 ± 1.68; DAI Score d 8 ([6]; 10 mpk, QD): 3.00 ± 1.07; DAI Score d 8 ([6]; 30 mpk, QD): 2.57 ± 2.50 |
| CN(C)c1cc2nn([C@H]3CC[C@H](CN4CCC(n5cc6cc(N7CCC(=O)NC7=O)ccc6n5)CC4)CC3)cc2cc1NC(=O)c1cnn2cccnc12 [TM-3] | – | 3.53 | 0.39 | 2.76 | Human liver microsome (t1/2, min) [2]: 145 min |
| CN(C)c1cc2nn([C@H]3CC[C@H](CN4CC[C@H](n5cc6cc(C7CCC(=O)NC7=O)c(F)cc6n5)[C@@H](F)C4)CC3)cc2cc1NC(=O)c1cnn2cccnc12 (stereo partly shown) [TM-134] | 114 | – | 2.59 | 3 | – |
| CN(C)c1cc2nn([C@H]3CC[C@H](CN4CC[C@@H](n5cc6ccc(C7CCC(=O)NC7=O)cc6n5)[C@H](F)C4)CC3)cc2cc1NC(=O)c1cnn2cccnc12 (stereo partly shown) [TM-152] | 104 | – | 9.43 | 1.09 | – |
| CN(C)c1cc2nn(C3CCN(C[C@H]4CC[C@H](n5cc6cc(C7CCC(=O)NC7=O)c(F)cc6n5)CC4)CC3)cc2cc1NC(=O)c1cnn2cccnc12 (stereo partly shown) [TM-8] | – | – | 0.84 | 3.58 | Human liver microsome (t1/2, min) [2]: 145 min |
